Test results published in paper PMC11540889, “In Vitro Cytotoxicity of Fluorinated Quaternary Ammonium Salts in Colorectal Cancer Cells and In Silico Pharmacology” (Advances in Pharmacological and Pharmaceutical Sciences, 2024).

Legend:
[1] = tested on: SW48 (Dukes' Type C, Grade IV, noninvasive colorectal adenocarcinoma); assay: MTT cytotoxicity, SW48 cells; details: for CC50: Homo sapiens, SW48, 48 h, SW48 cells, MTT, 48 h, mean ± SD; for Index of selectivity MCRT / SW48: IS = CC50 MCRT ÷ CC50 SW48; for Index of selectivity PBMC / SW48: IS = CC50 PBMC ÷ CC50 SW48
Procedure: (§1) The compounds were solubilized in dimethyl sulfoxide (DMSO, Fischer Chemical, NJ, USA) at 50,000 μg/mL and stored at −20°C until use. From the stock solution, six serial 1:2 double dilutions of each compound were prepared to start with concentrations of 100, 50, 25, 12.5, 6.25, and 3.125 μg/mL, respectively. 5-FU, one of the conventional drugs to treat CRC [34], was used as an antitumor compound control at concentrations ranging between 800 and 0.625 μM.
(§2) SW948 (Dukes' Type C, Grade III, premetastatic colorectal adenocarcinoma—CCL-237), SW48 (Dukes' Type C, Grade IV, noninvasive colorectal adenocarcinoma—CCL231), and SW620 (Dukes' Type C, Grade IV invasive colorectal adenocarcinoma—CCL227) (American Type Culture Collection Manassas, VA, USA) were maintained in standard conditions at 37°C, without a CO2 atmosphere. PBMCs and MCRT were used as nontumoral control cells. PBMCs were obtained by healthy donors, separated using Histopaque-1077 (Sigma-Aldrich) and cultured in RPMI-1640 medium (Sigma-Aldrich) supplemented with 10% SFB and 1% penicillin/streptomycin [46]. In turn, MCRT were obtained from healthy BALB/c mice; for this, mice were euthanized with CO2 after previous sedation, the colorectal tissue removed, cleaned up, and cut into 2 × 2 mm pieces, suspended in supplemented DMEM, and used immediately after collection. […] Moreover, the inclusion of PBMC also served to assess the systemic toxicity of FQAS.
(§3) The cytotoxic activity of synthesized FQASs and QASs was studied by measuring cell viability/mortality, determined with the MTT (3-(4,5-dimethylthiazol-2-yl)-2,5-diphenyl tetrazole bromide) method (VWR Chemicals and Reagents Avantor), upon exposure of each cell line to six serial dilutions of the different compounds independently. Unexposed cells were included as viability controls, and cells exposed to 5-FU were included as cytotoxicity controls. Briefly, cells were adjusted to 200,000 cells/mL in the corresponding supplemented culture medium, and 100 μL (20,000 cells/well) were dispensed into each 96-well cell culture plate (Nunc, Thermo Fisher Scientific). Twelve hours after seeding the monolayer, 100 μL dilution of each compound was added to each well; the plates containing CRC were incubated at 37°C in the absence of CO2, while plates with PBMCs and MCRT were incubated at 37°C and 5% CO2 atmosphere. For MCRT, each piece was placed into each well of a 96-well plate and exposed to each dilution of the FQASs and QASs. After 48 h of incubation, 30 μL/well of MTT (5 mg/mL) was added, and plates were left at 37°C for 3 h, protected from light. After this time, 100 μL/well of DMSO was added to solubilize the formazan crystals formed. Plates were read at 570 nm on a Varioskan plate reader (Thermo Fisher), and nonspecific absorbance was corrected by subtracting the optical densities (OD) of the blank solutions corresponding to the supplemented culture media (RPMI 1640, DMEM, or L-15 media) and 0.5% DMSO. Each concentration of the FQASs, QASs, and controls was evaluated in duplicate in three independent experiments.
(§4) The percentages of viability (equation (1)) and mortality (equation (2)) were calculated with the net OD:(1) % viability=OD treated cell÷nontreated cells×100, (2) % mortality=100−% viability.
(§5) The %mortality data for each compound concentration was recorded, and the median cytotoxic concentration (CC50), corresponding to the concentration at which 50% of cell death occurs, was calculated using GraphPad Prism 8 software (GraphPad, Software, Inc., La Jolla, CA, USA). […] Lastly, the index of selectivity (IS) was calculated by dividing the CC50 value obtained for control cells (MCRT and PBMCs) by the CC50 value obtained for each CRC cell phenotype using the formula: IS = CC50 (MCRT or PBMC) ÷ CC50 (SW948, SW48 or SW620).

[2] = MTT cytotoxicity, peripheral blood mononuclear cells; type: cell-based; details: human, peripheral blood mononuclear cells (PBMC); PBMC, nontumoral control, MTT, 48 h, mean ± SD
Procedure: as §1, §2, §3, §4, §5

[3] = tested on: peripheral blood mononuclear cells (PBMC); assay: as above; type: cell-based; details: PBMCs
Procedure: as §1, §2, §3, §4, §5

[4] = tested on: SW948 (Dukes' Type C, Grade III, premetastatic colorectal adenocarcinoma); assay: MTT cytotoxicity, SW948 cells; details: for CC50: Homo sapiens, SW948, 48 h, SW948 cells, MTT, 48 h, mean ± SD; for Index of selectivity MCRT / SW948: IS = CC50 MCRT ÷ CC50 SW948; for Index of selectivity PBMC / SW948: IS = CC50 PBMC ÷ CC50 SW948
Procedure: as §1, §2, §3, §4, §5

[5] = tested on: SW620 (Dukes' Type C, Grade IV invasive colorectal adenocarcinoma); assay: MTT cytotoxicity, SW620 cells; details: for CC50: Homo sapiens, 48 h; for Index of selectivity MCRT / SW620: IS = CC50 MCRT ÷ CC50 SW620; for Index of selectivity PBMC / SW620: IS = CC50 PBMC ÷ CC50 SW620
Procedure: as §1, §2, §3, §4, §5

[6] = tested on: CRC cell lines SW48, SW620, and SW948; assay: MTT cytotoxicity across CRC cell lines (pooled statements, selectivity between lines); type: cell-based; details: for Index of selectivity SW48 vs. SW620: IS = CC50 SW48 ÷ CC50 SW620; for Index of selectivity SW948 vs. SW48: IS = CC50 SW948 ÷ CC50 SW48; for Index of selectivity SW948 vs. SW620: IS = CC50 SW948 ÷ CC50 SW620
Procedure: as §1, §2, §3, §4
The %mortality data for each compound concentration was recorded, and the median cytotoxic concentration (CC50), corresponding to the concentration at which 50% of cell death occurs, was calculated using GraphPad Prism 8 software (GraphPad, Software, Inc., La Jolla, CA, USA). […]

[7] = Ex vivo MTT cytotoxicity, healthy murine colorectal tissue; type: cell-based, BALB/c mice; details: BALB/c, mouse, healthy murine colorectal tissue (MCRT) pieces, ex vivo, nontumoral control, MTT, 48 h, mean ± SD
Procedure: as §1, §2, §3, §4, §5

[8] = tested on: healthy murine colorectal tissue (MCRT); assay: as above; type: cell-based, BALB/c mice
Procedure: as §1, §2, §3, §4, §5

| Compound | CC50 [1] | Index of selectivity MCRT / SW48 [1] | Index of selectivity PBMC / SW48 [1] | CC50 at 48 h [2] | cytotoxicity in words [3] | CC50 [4] | Index of selectivity MCRT / SW948 [4] | Index of selectivity PBMC / SW948 [4] | CC50 [5] | Index of selectivity MCRT / SW620 [5] | Index of selectivity PBMC / SW620 [5] | Index of selectivity SW48 vs. SW620 [6] | Index of selectivity SW948 vs. SW48 [6] | Index of selectivity SW948 vs. SW620 [6] | CC50 at 48 h [7] | cytotoxicity in words [8] |
| --- | --- | --- | --- | --- | --- | --- | --- | --- | --- | --- | --- | --- | --- | --- | --- | --- |
| C[N+](C)(CI)CCCC=C(c1ccccc1)c1ccccc1 [Compound 15] | 124 ± 2.3 µM | 2.1 | 0.2 | 29.3 ± 1.4 µM | highly cytotoxic | 98.2 ± 4.3 µM | 2.6 | 0.3 | 158 ± 2.3 µM | 1.6 | 0.2 | 0.8 | 0.8 | 0.6 | 256 ± 14 µM | moderate cytotoxicity |
| C[N+](C)(CI)CCCCC=C(c1ccccc1)c1ccccc1 [Compound 16] | 65.2 ± 3.7 µM | 2.1 | 0.6 | 38.8 ± 5.6 µM | highly cytotoxic | 71 ± 12.4 µM | 1.9 | 0.6 | 72.9 ± 4.2 µM | 1.9 | 0.5 | 0.9 | 1.1 | 1.0 | 135 ± 11.8 µM | noncytotoxic |
